≈ marks a conversion by molar mass, not a printed value. Read-outs that look alike come from different tables or passages of the source.
Tests used:
Assay type in all cases: cell-based, Helicobacter pylori
[1] = tested on: H. pylori strain G50 (CagA−); test: Minimal bactericidal concentration (MBC), broth dilution with subculture on agar; conditions: substance alone
[2] = tested on: H. pylori strain 10K (CagA+); test: as above; conditions: substance alone
[3] = tested on: H. pylori strain CCUG 17874 (CagA+); test: as above
[4] = tested on: H. pylori strain G21 (CagA−); test: as above; conditions: substance alone
[5] = tested on: H. pylori strain 4 Kb (CagA+); test: as above; conditions: substance alone
[6] = tested on: H. pylori strain Di Simpli (CagA+); test: as above; conditions: substance alone
[7] = tested on: H. pylori strain 328 (CagA+); test: as above; conditions: substance alone
[8] = tested on: H. pylori strain M/C-R1 (CagA+, resistant to met and clar); test: as above; conditions: substance alone
[9] = tested on: H. pylori strain M/C-R2 (CagA+, resistant to met and clar); test: as above; conditions: substance alone
[10] = tested on: H. pylori strain 328 Km (isogenic mutant CagA−); conditions: substance alone
[11] = Helicobacter pylori, read-out: MBC
[12] = Helicobacter pylori, CCUG17874, substance alone, read-out: MBC

Row | Compound | MBC [1, 11] | MBC [2, 11] | MBC [3, 12] | MBC [6, 11] | MBC [7, 11] | MBC [8, 11] | MBC [9, 11] | further results
1 | CC1(C)S[C@@H]2[C@H](NC(=O)[C@H](N)c3ccc(O)cc3)C(=O)N2[C@H]1C(=O)O [amoxicillin] | 0.04 µg/mL (≈ 0.109 µM) | 0.08 µg/mL (≈ 0.219 µM) |  |  |  |  |  | 
2 | CC[C@H]1OC(=O)[C@H](C)[C@@H](O[C@H]2C[C@@](C)(OC)[C@@H](O)[C@H](C)O2)[C@H](C)[C@@H](O[C@@H]2O[C@H](C)C[C@H](N(C)C)[C@H]2O)[C@](C)(OC)C[C@@H](C)C(=O)[C@H](C)[C@@H](O)[C@]1(C)O [clarithromycin] | 0.2 µg/mL (≈ 0.267 µM) |  | 0.25 µg/mL (≈ 0.334 µM) | 0.4 µg/mL (≈ 0.535 µM) | 0.2 µg/mL (≈ 0.267 µM) | 320 µg/mL (≈ 428 µM) | 2500 µg/mL (≈ 3340 µM) | MBC [4, 11]: 0.2 µg/mL (≈ 0.267 µM); MBC [5, 11]: 0.1 µg/mL (≈ 0.134 µM)
3 | C[C@H]1COc2c(N3CCN(C)CC3)c(F)cc3c(=O)c(C(=O)O)cn1c23 [levofloxacin] | 0.16 µg/mL (≈ 0.443 µM) | 0.31 µg/mL (≈ 0.858 µM) |  |  |  |  |  | 
4 | Cc1ncc([N+](=O)[O-])n1CCO [metronidazole] |  |  | 3.1 µg/mL (≈ 18.1 µM) | 10 µg/mL (≈ 58.4 µM) | 16 µg/mL (≈ 93.5 µM) | 40 µg/mL (≈ 234 µM) | 320 µg/mL (≈ 1870 µM) | 
5 | polyoxyethylene (20) sorbitan monooleate [polysorbate 80] |  |  |  |  |  |  |  | MBC ([3]; substance alone): 5.0 µg/mL; MBC [1]: 4.0 µg/mL; MBC ([1]; listed as polysorbate): 4 µg/mL; MBC [4]: 1.6 µg/mL; MBC [5]: 31 µg/mL; MBC [6]: 25 µg/mL; MBC [2]: 6.2 µg/mL; MBC [7]: 31 to 62 µg/mL; MBC ([7]; listed as polysorbate): 62 µg/mL; MBC [10]: 62 µg/mL; MBC [8]: 160 µg/mL; MBC [9]: 62 µg/mL

From patent US9895387B2, “Compositions for treating Helicobacter pylori infection” (OVER S.R.L., priority 2010, dated 2018)
